Patent US20210017607A1, “Methods of Predicting Responsiveness to Cancer Therapies” (The University of Chicago, priority 2019, published 2021)

Columns and labels:
[1] = system: single cell suspensions derived from Myc-CAP (STING^lo) tumors; assay: Ex vivo reconstitution assay, IFNβ ELISA; assay type: cell-based, mouse; conditions: for IFNβ production within supernatants: ex vivo drug treatment, 36 hours
Experimental: FIGS. 15A-15E. Differential STING pathway activation within B6-Myc (STING^hi) cell lines and BMDMs relative to Myc-CAP (STING^lo) cells. (15A, 15B) The indicated cancer cell lines and BMDMs were treated with DMXAA (mouse STING agonist) for 1 and 24 hours, respectively, and protein extracts were interrogated for cGAS/STING pathway activation with the indicated antibodies by Western blotting. Supernatants were collected from for IFNβ1 ELISA following 36 hours of treatment with DMXAA (15C, 15D). (15E) Syngeneic Myc-CAP (STING^lo) tumors were processed into single cell suspensions and used for phycoerythrin-based sorting of CD45+ cellular fractions. Equal numbers of cells from these fractions were stimulated with DMXAA. Supernatants were collected at 36 hrs for detection of IFNB1 by ELISA; n=3 independent experiments; Significance/p-values were calculated by one-way Anova (for 15C & 15E) or paired t-test (for 15D); TAM=tumor associated macrophage; s.e.=short exposure; l.e.=long exposure.
FIGS. 29A-29M. PARPi alone induces DNA DSBs, but not apoptosis even in combination with PI3Ki in Myc-CAP (STING^lo) cancer cells; PARPi/PI3Ki combination induces intracellular DNA DSBs and proportionate release of MV surface-associated DNA DSBs from B6-Myc (STINGhi) cancer cells without affecting cellular viability; PARPi/PI3K treatment activates tumor-cell extrinsic cGAS/STING pathway within TAMs in vivo via MV surface-associated DNA DSBs released from tumor cells. Myc-CAP cancer cells were treated with the indicated drugs singly or in combination for 36 hours. (29A) Cells were stained with anti-mouse specific p-γH2AX antibody and a fluorescently labeled secondary antibody for determination of DNA DSBs, which were quantified by confocal microscopy. (29B) Protein extracts from cells in 29A were analyzed for the indicated pharmacodynamic biomarkers by western blotting; (29C) Annexin V-PI staining was done to assess frequency of live cells (Annexin V^− PI^−) following drug treatment. (29D) Ultracentrifugation was utilized to purify microvesicles (MVs) from supernatants in treatment groups in (29A) and associated DNA DSBs was quantified by Nanodrop®. Independent experiments n=2. (29E) Ultracentrifugation was utilized to purify MVs from supernatants in indicated treatment groups in FIG. 17A, and associated DNA DSBs were quantified by Nanodrop®; n=2 independent experiments. (29F) Syngeneic mice were engrafted with Myc-CAP (STING^lo) cells, and tumors were harvested when the tumor volume reached 400 mm^3. Single cell suspensions of the tumors were treated with the indicated drug(s), in the presence or absence of GW4869 (MV biogenesis inhibitor). (29G) Bone marrow derived macrophage (BMDMs) were co-cultured for 30 hours with supernatants (−/+ exogenous 50 units of DNase I pre-treatment for 30 minutes) from Myc-CAP cells that were treated with the indicated drug(s) for 36 hours. (29H) cGAMP (10 μg/mL) was pre-incubated with 10 units of DNAse I or mock control for 30 minutes and then added to BMDMs for 30 hours. (29I-29L) STING^+/+/STING^−/− BMDMs were co-cultured for 36 hours with supernatants from Myc-CAP and B6-Myc cancer cells that were treated with the indicated drug(s) for 36 hours. Supernatants were collected from 29F-29L at the end of treatment and analyzed for IFNβ1 by ELISA. […] Tumor volume was recorded daily for duration of experiment. […] Significance/p-values were calculated by one-way ANOVA. […]

Myc-CAP (STING^lo) cells = assay: p-γH2AX foci (DNA DSBs) by confocal microscopy; assay type: cell-based, mouse
From the text: FIGS. 29A-29M. PARPi alone induces DNA DSBs, but not apoptosis even in combination with PI3Ki in Myc-CAP (STING^lo) cancer cells; PARPi/PI3Ki combination induces intracellular DNA DSBs and proportionate release of MV surface-associated DNA DSBs from B6-Myc (STINGhi) cancer cells without affecting cellular viability; PARPi/PI3K treatment activates tumor-cell extrinsic cGAS/STING pathway within TAMs in vivo via MV surface-associated DNA DSBs released from tumor cells. Myc-CAP cancer cells were treated with the indicated drugs singly or in combination for 36 hours. (29A) Cells were stained with anti-mouse specific p-γH2AX antibody and a fluorescently labeled secondary antibody for determination of DNA DSBs, which were quantified by confocal microscopy. (29B) Protein extracts from cells in 29A were analyzed for the indicated pharmacodynamic biomarkers by western blotting; (29C) Annexin V-PI staining was done to assess frequency of live cells (Annexin V^− PI^−) following drug treatment. (29D) Ultracentrifugation was utilized to purify microvesicles (MVs) from supernatants in treatment groups in (29A) and associated DNA DSBs was quantified by Nanodrop®. Independent experiments n=2. (29E) Ultracentrifugation was utilized to purify MVs from supernatants in indicated treatment groups in FIG. 17A, and associated DNA DSBs were quantified by Nanodrop®; n=2 independent experiments. […]

| Compound | IFN-β response within the CD45-negative tumor cell fraction ([1]; ex vivo DMXAA treatment) | fold increase in IFN-β levels within the TME ([1]; ex vivo DMXAA treatment) [fold] | IFNβ production within supernatants [1] | DNA damage on addition to rucaparib, relative to rucaparib alone (Myc-CAP (STING^lo) cells) | DNA DSBs (number of p-γH2AX foci) (Myc-CAP (STING^lo) cells; 36 hours) |
| --- | --- | --- | --- | --- | --- |
| Cc1ccc2c(=O)c3cccc(CC(=O)O)c3oc2c1C [DMXAA, 5,6-Dimethylxanthenone-4-acetic Acid] | lack of response | 11.4 |  |  |  |
| Nc1cc(C(F)(F)F)c(-c2cc(N3CCOCC3)nc(N3CCOCC3)n2)cn1 [buparlisib] |  |  | not observed | did not further increase DNA damage |  |
| CNCc1ccc(-c2[nH]c3cc(F)cc4c3c2CCNC4=O)cc1 [rucaparib] |  |  | not observed |  | increase in DNA DSBs |
